The values that follow come from patent US20070265164A1, “Active Substances for Increasing Pathogenic Defense in Plants and Methods for the Detection Thereof” (Bayer Cropscience GmbH, priority 2004, published 2007).

Format in all cases: in vivo
Design in all cases: fold induction: dose or concentration left out as unconfirmed

Assay [1] relates to Contig3097_at, Allene oxide synthase. Kind of assay: GEP, barley DNA chip, probe set 1.3. Conditions: Hordeum vulgare, topical, read-out: Expression value, 1.3 Contig3097_at; for fold induction: barley leaves 6 h after spray application, rates of Table 1 (S7 500), median induction factor vs control. The method, then: (§1) Barley plants (cv. Baronesse) were grown in compost-filled pots (diameter: 10 cm) for 10 days in a controlled-environment cabinet under defined light, humidity and temperature conditions (white light, 70% atmospheric humidity, 24° C.). At the time of spray application, the seedlings were approximately 15 cm in size. The test substances selected in this example were molecules which differ markedly in their structure and which have a well documented pronounced safener effect, and other molecules which are known from the literature to have an effect on plant stress and pathogen tolerance (Table 1). The substances were prepared as stock solutions in DMSO (dimethyl sulfoxide) at c=10 mg/ml). This was used for preparing dilutions in water supplemented with 0.2% Agrotin (comprises polyvinyl alcohol, silicones, polysaccharides and pH regulators, manufacturer: Bayer CropScience AG, Monheim, Germany), as wetter, to give the application rates shown in the table. The amount of liquid for the spray application was 800 μl per pot, corresponding to 800 l/ha. For each 800 μl of spray mixture, 16 μl of EC premix: diacetone alcohol=1:6 were additionally added as formulation auxiliaries. The substances listed in Table 1 were applied to the leaves by means of a pneumatic spray pistol. Each substance was sprayed as 2 dosages, and all experiments were carried out as replicates (2 pots per substance). Sprayings with blank formulation without active ingredient were carried out as controls. After 6 hours, the leaves were harvested, frozen in liquid nitrogen and stored at −80° C. until further use. The labeled RNA probes for the DNA chip hybridization were prepared as described in the protocols (Expression Analysis, Technical Manual) from Affymetrix (Affymetrix Inc., 3380 Central Expressway, Santa Clara, Calif., USA). First, total RNA was isolated from in each case 500 mg of the harvested leaves. In each case 10 μg of total RNA was used for the first-strand and second-strand cDNA synthesis. The cDNA was amplified with T7 polymerase and simultaneously labeled with biotin-UTP. In each case, 20 μg of this biotinylated cDNA was employed for the hybridization of the barley genome array (Gene Chip Barleyl, order No.: 511012) from Affymetrix. This DNA microarray comprises DNA sequences of 22 840 genes which are composed of a total of 400 000 EST sequences. Thereafter, the DNA microarrays were washed in the Affymetrix Fluidics Station, stained with streptavidin/phycoerythrin (Molecular Probes, P/N S-866) and scanned with the matching Agilent Laser Scanner (Agilent Gene Array Scanner). The fluorescent data obtained were analyzed with the software Microarray Suite 5 from Affymetrix. After the quality had been checked, all DNA chip analyses were stored in a database. To determine the relative expression values for genes (induction factors, repression factors), test and control chips were compared with each other, and the scoring function set by the Affymetrix software was used as the basis. The 2 biological replications of one experiment were compared in each case with 2 control chips (blank formulation), and the 4 expression values obtained for each gene were used for calculating the median. These medians are shown in the results tables as induction factors. Similarity comparisons of expression profiles from different experiments and cluster analyses were carried out using the software GeneMaths 1.5 from Applied Maths (Applied Maths, Keistraat 120, 9830 Sint-Martens-Latem, Belgium).
(§2) Gene groups from specific metabolic pathways and signal transduction chains were put together by key word search in the annotations, of the genes, which were also provided by Affymetrix, and by Blast analyses (homology comparisons) of the DNA target sequences, i.e. of the positive sequence (identified on the basis of a modified expression profile) identified on the DNA chip, using gene sequences from other organisms, preferably plant organisms, with characterized functions. […]

Assay [2] deals with Contig5146_at, Probable 12-oxophytodienoate reductase (EC 1.3.1.42). Kind of assay: GEP, barley DNA chip, probe set 1.4. Conditions: Hordeum vulgare, topical, read-out: Expression value, 1.4 Contig5146_at; for fold induction: barley leaves 6 h after spray application, rates of Table 1 (S7 500), median induction factor vs control. The method, then:
as §1, §2

Assay [3] relates to Contig9556_at, 12-oxophytodienoate reductase 3. The assay can be described thus: GEP, barley DNA chip, probe set 1.8. Conditions: Hordeum vulgare, topical, read-out: Expression value, 1.8 Contig9556_at; for fold induction: barley leaves 6 h after spray application, rates of Table 1 (S7 500), median induction factor vs control. Here is the method:
as §1, §2

Assay [4] concerns Contig12574_at, Putative lipoxygenase. The assay can be described thus: GEP, barley DNA chip, probe set 1.11. Conditions: Hordeum vulgare, read-out: Expression value, 1.11 Contig12574_at; for fold induction: barley leaves 6 h after spray application, rates of Table 1 (S7 500), median induction factor vs control. Here is the method: as §1, §2
Assay [5] deals with Contig10030_at, Putative lipase homolog. Kind of assay: GEP, barley DNA chip, probe set 1.13. Conditions: Hordeum vulgare, topical, read-out: Expression value, 1.13 Contig10030_at; for fold induction: barley leaves 6 h after spray application, rates of Table 1 (S7 500), median induction factor vs control. The method, then: as §1, §2
Assay [6] relates to Contig1737_at, Probable lipoxygenase. The assay can be described thus: GEP, barley DNA chip, probe set 1.15. Conditions: Hordeum vulgare, topical, read-out: Expression value, 1.15 Contig1737_at; for fold induction: barley leaves 6 h after spray application, rates of Table 1 (S7 500), median induction factor vs control. Here is the method:
as §1, §2

Assay [7] deals with Contig2326_s_at, 12-oxophytodienoic acid reductase. The assay can be described thus: GEP, barley DNA chip, probe set 1.18. Conditions: Hordeum vulgare, topical, read-out: Expression value, 1.18 Contig2326_s_at; for fold induction: barley leaves 6 h after spray application, rates of Table 1 (S7 500), median induction factor vs control. Here is the method:
as §1, §2

Assay [8] concerns Contig2330_x_at, 12-oxophytodienoic acid reductase. The assay can be described thus: GEP, barley DNA chip, probe set 1.19. Conditions: Hordeum vulgare, topical, read-out: Expression value, 1.19 Contig2330_x_at; for fold induction: barley leaves 6 h after spray application, rates of Table 1 (S7 500), median induction factor vs control. The method, then:
as §1, §2

Assay [9] deals with Contig34_s_at, Putative proteinase inhibitor. Kind of assay: GEP, barley DNA chip, probe set 2.2. Conditions: Hordeum vulgare, topical, read-out: Expression value, 2.2 Contig34_s_at; for fold induction: barley leaves 6 h after spray application, rates of Table 1 (S7 500), median induction factor vs control. Here is the method:
as §1, §2

For assay [10], the system named is Contig5369_at, Pathogen-related protein. Kind of assay: GEP, barley DNA chip, probe set 4.2. Conditions: Hordeum vulgare, topical, read-out: Expression value, 4.2 Contig5369_at; for fold induction: barley leaves 6 h after spray application, rates of Table 1 (S7 500), median induction factor vs control. The method, then:
as §1, §2

For assay [11], the system named is Contig5607_s_at, Pathogen-related protein (PirT06168). The assay can be described thus: GEP, barley DNA chip, probe set 4.3. Conditions: Hordeum vulgare, topical, read-out: Expression value, 4.3 Contig5607_s_at; for fold induction: barley leaves 6 h after spray application, rates of Table 1 (S7 500), median induction factor vs control. The method, then:
as §1, §2

Assay [12] deals with Contig2992_s_at, Chitinase (EC 3.2.1.14). The assay can be described thus: GEP, barley DNA chip, probe set 5.2. Conditions: Hordeum vulgare, topical, read-out: Expression value, 5.2 Contig2992_s_at; for fold induction: barley leaves 6 h after spray application, rates of Table 1 (S7 500), median induction factor vs control. The method, then:
as §1, §2

For assay [13], the system named is Contig5023_at, Class III chitinase. The assay can be described thus: GEP, barley DNA chip, probe set 5.3. Conditions: Hordeum vulgare, topical, read-out: Expression value, 5.3 Contig5023_at; for fold induction: barley leaves 6 h after spray application, rates of Table 1 (S7 500), median induction factor vs control. The method, then: as §1, §2

Regarding `COC(=O)C1=NN(c2ccc(Cl)cc2Cl)C(C)(C(=O)OC)C1` (stereo not drawn) [S1, Mefenpyr-dimethyl], the fold induction in assay [1] was determined as 1; in [2] it was 7.73; in assay [3], 1; in assay [4], 0.5; in assay [5] it was 1; in assay [6], 1. Further, the fold induction in assay [7] was 2.31; in assay [8], 4.03; in assay [9], 1; in assay [10] it was 2.35; in assay [11] it was 18.6; in [12], 6.5. Moreover, in assay [13], the fold induction is 9.51.

`O=C(O)C1=NN(c2ccc(Cl)cc2Cl)C(c2ccc(F)cc2)C1` (stereo not drawn) [S2]: the fold induction turned out to be 1 in assay [1]; 4.47 in [2]; 1 in assay [3]; 1 in [4]; 1 in [5]; 1 in assay [6]. Moreover, the fold induction in assay [7] stood at 1; in assay [8], 2.39; in assay [9], 1; in [10] it was 1; in [11], 15.6; in [12], 1. For the same molecule, in assay [13], the fold induction amounted to 3.18.

For the molecule `CCOC(=O)C1=NOC(c2ccccc2)(c2ccccc2)C1` [S3, Isoxadifen-ethyl], the fold induction at 150 g/ha in [1] (6 h) was 8.51; in [2] (6 h) it was 4.5; in assay [3] (6 h), 3.03; in [4] (6 h), 2.81; in assay [5] (6 h), 2.25; in assay [6] (6 h), 1. In addition, the fold induction at 150 g/ha in [7] (6 h) is 1; in assay [8] (6 h), 1; in assay [9] (6 h), 1; in [10] (6 h), 4.76; in assay [11] (6 h), 13.4; in [12] (6 h) it was 2.19. Besides, in assay [13] (6 h), the fold induction at 150 g/ha was found to be 1.

For the molecule `CCCCCC(C)OC(=O)COc1ccc(Cl)c2cccnc12` (stereo not drawn) [S4, Cloquintocet-mexyl], the fold induction is 1 in assay [1]; 4.72 in assay [2]; 1 in [3]; 1 in [4]; 1 in assay [5]; 1 in assay [6]. Also, the fold induction in [7] stood at 2.45; in [8], 2.83; in assay [9], 1; in assay [10], 1; in assay [11], 18.4; in [12] it was 1. Further, the fold induction in assay [13] amounted to 1.

Regarding `CCOC(=O)C(Oc1ccc(Cl)c2cccnc12)C(=O)OCC` [S5], the fold induction was 1 in assay [1]; 5.35 in assay [2]; 1 in assay [3]; 1 in [4]; 1 in assay [5]; 1 in assay [6]. The fold induction in [7] is 1; in assay [8], 1; in [9], 1; in assay [10] it was 1; in [11] it was 8.75; in [12], 3.12. The fold induction in [13] is 2.73.

Consider `NC(=O)c1ccc(C(F)(F)F)nc1O` [S6], for which the fold induction in assay [1] was 1; in assay [2] it was 6.77; in assay [3], 1; in assay [4], 1; in assay [5] it was 1; in assay [6] it was 1. Further, the fold induction worked out at 1 in [7]; 2.55 in assay [8]; 1 in [9]; 1 in assay [10]; 9.99 in assay [11]; 2.27 in [12]. In addition, the fold induction in assay [13] came out at 1.
